Measurements: patent US20080235828A1 (University of Manitoba, priority 2004, published 2008)

Columns and labels:
ABAP1 = ABAP1 (Hordeum vulgare, UniProt Q9LLX3); experiment: ABA binding assay with purified recombinant ABAP1; parameters: species or system barley
Procedure: Other additions or changes to the incubation system are discussed in the figure legends. All binding assays were carried out at a final volume of 150 μL at 4° C. for 1 hour. The mixture was then rapidly filtered through a nitrocellulose membrane, washed with 5 mL, of cold 0.5× binding buffer by rapid filtration, dried in air and counted in a scintillation counter (Wallac 1414 WinSpectral v1.40). […] The DCC binding mixture was maintained for 15 minutes on ice before centrifugation to precipitate DCC. The resulted supernatant was then counted in a scintillation counter to determine the binding activity. […] Heat denatured ABAP1 protein was used to determine the protein nature of the ABAP1 and BSA was used as a control. All binding studies were carried out using three different protein purifications with triplicate assays for each purification. […] Binding was represented as the number of moles of ^3H^+-ABA per mole of ABAP1 protein.

FCA-RRM = experiment: Preliminary ABA-binding assays using crude lysate from FCA-RRM; parameters: species or system Arabidopsis
Procedure: All binding assays were carried out at a final volume of 200 μL at 4° C. for 45 minutes. The mixture was then rapidly filtered through a nitrocellulose membrane, washed with 0.5× binding buffer, air dried and counted in a scintillation counter (Wallac 1414 WinSpectral v1.40). Heat denatured FCA protein was used to used determine the protein nature of the FCA and BSA was used as a control. […] […] Specific binding was calculated by taking the difference for assays with only ^3H^+-ABA (total binding) and assays that also contained 5 μM (±)-ABA added at the same time as ^3H^+-ABA (non-specific binding). Binding was represented as the number of moles of ^3H^+-ABA per mole of FCA protein.

FCA/FY interaction = experiment: GST pull-down of FCA/FY interaction in the presence of ABA; type: binding, Arabidopsis
Procedure: All in vitro translation and GST pull-down assays were carried out as described by supplier's protocols (Promega, Madison, Wis.) with modifications^S and as follows. For GST in vitro pull-down assays, 15 μL GST affinity resin was incubated with 250 μL FCA clear lysate, pelleted and the complex blocked and washed with IP buffer as described^S. For the determination of the amount of FCA bound to GST resin, the pellet was resuspended with 200 μL of 15 mM GSH to elute FCA and the supernatant was recovered by centrifugation. FY protein to be tested for interaction with the GST-FCA fusion protein was synthesized from a plasmid template and labeled with [^35S]-methionine using the T7 TNT coupled Transcription/Translation System (Promega). Twenty μL of FY labeled protein and 180 μL of interaction buffer (12.5 mM Tris-HCl, pH 7.3 containing 5 mM KCl, 1 mM MgCl2, and 100 mM NaCl) were used to resuspend the GST:FCA after the final wash. The protein binding/interaction reaction was carried out for 90 minutes at 4° C. with continuous gentle mixing. The newly formed complex was then washed three times with 500 μL of IP wash buffer. After the final wash, the complex was resuspended, first with 10 μL of 1 5 mM GSH to facilitate the dissociation of interacted proteins from GST resin and then 10 μL of 2×SDS-PAGE sample buffer was added to the mixture and boiled for 5 minutes for complete elution of the proteins from the agarose beads. The beads were pelleted by centrifugation and supernatant was loaded on a 12% SDS-PAGE gel. The gel was dried and exposed to Kodak X-ray film for 18 hours at −70° C. and film was developed for the detection of labelled proteins.
FCA was bound with […] for 30 minutes at which time the FCA/FY translated product was added to the incubation mixture. The interaction between FCA/FY was carried out in the presence of either (−)- or (+)-ABA in binding buffer as described above. Released proteins were separated on SDS-PAGE and labelled proteins were detected as described above. FCA-WW-FY was used as a control.

GST:FCA-WW-FY = experiment: ABA binding to and dissociation of pre-formed FCA-FY complex; parameters: species or system Arabidopsis
Procedure: The GST:FCA-WW-FY interaction mixture was incubated for 90 minutes before 1 μM ^3H^+-ABA was added and the mixture pelletted, washed, and the dual activity for [^35S]-met-FY and ^3H^+-ABA were counted as described above.

Sequence of ABAP1 (Q9LLX3 entry or part of it): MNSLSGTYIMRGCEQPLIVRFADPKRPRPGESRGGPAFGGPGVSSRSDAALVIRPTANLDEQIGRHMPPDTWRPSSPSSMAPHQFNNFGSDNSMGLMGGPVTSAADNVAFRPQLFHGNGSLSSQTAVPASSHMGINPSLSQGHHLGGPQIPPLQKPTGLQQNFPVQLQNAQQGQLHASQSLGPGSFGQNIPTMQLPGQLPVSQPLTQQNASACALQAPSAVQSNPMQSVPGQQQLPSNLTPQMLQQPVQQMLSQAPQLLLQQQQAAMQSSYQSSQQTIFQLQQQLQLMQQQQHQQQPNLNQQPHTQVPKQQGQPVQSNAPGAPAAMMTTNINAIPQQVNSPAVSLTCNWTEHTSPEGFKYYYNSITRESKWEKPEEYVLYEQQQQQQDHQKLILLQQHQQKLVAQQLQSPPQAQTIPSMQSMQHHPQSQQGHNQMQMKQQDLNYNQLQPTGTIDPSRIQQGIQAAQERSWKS
Sequence of GST:FCA-WW-FY (O04425 591-747 limits assumed): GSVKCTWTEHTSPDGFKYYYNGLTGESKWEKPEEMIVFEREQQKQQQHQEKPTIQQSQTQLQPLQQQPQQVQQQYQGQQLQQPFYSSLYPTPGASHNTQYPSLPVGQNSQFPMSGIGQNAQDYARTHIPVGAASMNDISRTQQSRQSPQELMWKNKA
Sequence of FCA-RRM (O04425 120-291 limits assumed): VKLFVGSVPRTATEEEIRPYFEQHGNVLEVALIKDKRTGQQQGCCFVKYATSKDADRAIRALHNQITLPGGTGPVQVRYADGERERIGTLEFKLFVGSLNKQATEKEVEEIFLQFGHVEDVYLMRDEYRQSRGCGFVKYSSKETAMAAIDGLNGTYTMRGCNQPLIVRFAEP

abscisic acid [ABA]
pH of maximum binding activity (ABAP1; 3H+-ABA binding at varying pH): 7.3
maximum specific binding (ABAP1; Scatchard plot analysis, r^2=0.94): 0.8 mol ABA mold protein
ratio of ABA bound to ABAP1 (ABAP1; Scatchard plot, r^2=0.94): approximately 0.8 mol ABA mol^−1 protein
time maximum binding activity remained stable (ABAP1; additional time after reaching maximum binding): ≥ 3 h
maximum binding activity (total binding) (ABAP1; association kinetics, total binding): ≈ 0.7 mol ABA mol^−1 protein
non-specific binding (ABAP1; in presence of 5 μM unlabelled ABA): less than 10 % of the total binding
3H+-ABA binding (FCA-RRM): did not show any
inhibition of FCA/FY interaction (FCA/FY interaction; FCA pre-bound with ABA for 30 min): significantly inhibited
FCA/FY interaction remaining (FCA/FY interaction; at 1 μM ABA): virtually no significant interaction
disruption of FCA-FY complex (displacement of FY) (GST:FCA-WW-FY): capable of disrupting the FCA-FY complex
ABA binding activity of pre-formed FCA-FY complex (GST:FCA-WW-FY; 1 μM 3H+-ABA added after 90 min FCA-FY incubation): initially low but significantly increased after 45 minutes
